Experiments:
[1] = tested on: E. coli JM101/pMON9428 (pehA:1); experiment: Conditional lethal phenotype test on MOPS minimal plates; assay type: cell-based
Excerpt: (§1) The NcoI-BamHI pehA:1 fragment was removed from pMON9420 by restricting the DNA with both enzymes, separating the fragments on an agarose gel, and purifying the pehA fragment from the gel using the GeneClean kit. In a similar manner the BamHI-ClaI pehA:1 fragment was obtained from pMON9421 and both were ligated into an E. coli expression vector to reconstruct the pehA:1 gene behind the RecA promoter with the […] gene 10L leader. The resulting vector, pMON9428 (FIG. 3), was transformed into E. coli strain JM101 using calcium chloride transformation and transformants selected on LB agar with 100 μg/ml spectinomycin. A single colony was isolated and confirmed by restriction mapping to contain pMON9428. The JM101/pMON9428 was then streaked out on LB agar plates containing 100 μg/ml spectinomycin and […] XPP. As a control, JM101 containing the RecA expression vector without the pehA:1 gene was streaked out on the same plate. The JM101/pMON9428 formed blue colonies while the JM101 with the control vector formed white colonies. […] The JM101/pMON9428 and vector control strain were then plated on MOPS minimal medium containing 0.05 mM HK2 PO4 as the phosphate source and 100 μg/ml spectinomycin. […] To test for a conditional lethal phenotype, both strains were streaked side by side on a MOPS minimal plate with 0.05 mM KPO4, 100 μg/ml spectinomycin and 10 mM glyceryl glyphosate. […] To confirm the lethal phenotype was the result of the degradation of the glyceryl glyphosate and subsequent inhibition of aromatic amino acid biosynthesis by glyphosate, both E. coli strains were plated on MOPS minimal medium with 0.05 mM KPO4, 100 μg/ml spectinomycin, 10 mM glyceryl glyphosate and supplemented with aromatic compounds consisting of L-tyrosine, L-tryptophan, L-phenylalanine, each at 100 μg/ml, 2,3 -dihydroxybenzoicacid and para-aminobenzoic acid, each at 5 μg/ml. […] This confirmed that the conditional lethal phenotype observed in the presence of the glyceryl glyphosate was the result of its conversion to and subsequent inhibition of EPSPS by glyphosate.

[2] = tested on: E. coli JM101/vector control; experiment: as above; assay type: cell-based
Excerpt: as §1

[3] = tested on: Arabidopsis callus; assay type: cell-based
[4] = tested on: PG2982 crude extract; experiment: In vitro radioactive hydrolysis assay in crude extracts; assay type: biochemical, Pseudomonas caryophilli; details: strain PG2982
Excerpt: The enzymatic reaction can be assayed using labelled (3-^14 C-) glyceryl glyphosate as a substrate and following the conversion to (3-^14 C-)glyphosate as a product using a high pressure liquid chromatography system with a radioactive detector. This assay is the most specific for the phosphonate monoester hydrolase enzymes useful for conditional cell lethality. An enzyme assay consists of 40,000 cpm of labelled (3-^14 C-) glyceryl glyphosate (obtained from NEN Biochemicals), the PEH sample in buffer and buffer to 100 μl final volume. The assay buffer is 10 mM Bis-Tris propane, pH 9.0, plus 100 mM KCl. The reaction is run for 1 hour at 30° C. and then stopped by the addition of 100 μl "quench" which is 100 mM sodium acetate, pH 5.5, in ethanol. […] The radioactivity of the peaks is measured and integrated by a post-column detector. […]
Bacteria which grew in this medium using glyceryl glyphosate as a sole phosphate source had the ability to cleave both the ester and the phosphonate bond to release the free phosphate. […] After a three hour incubation period, the cells were pelleted in a microfuge and the supernatant injected onto an HPLC anion exchange column and glyphosate analyzed as described above. […] The pellet extract was then analyzed for glyphosate product as described above. […]

Q: Which results are given for `O=C(O)CNCP(=O)(O)OCC(O)CO` (stereo not drawn) [glyceryl glyphosate, glycine, N-([hydroxy (2,3 dihydroxy propoxy)phosphonyl]methyl)]?
A: Colony formation with aromatic compound supplement ([1]; 10 mM glyceryl glyphosate plus L-tyrosine, L-tryptophan, L-phenylalanine, 2,3-dihydroxybenzoic acid, para-aminobenzoic acid): formed colonies; Colony formation (lethal phenotype) ([1]; 10 mM glyceryl glyphosate, MOPS minimal plate): did not form visible colonies; Colony formation with aromatic compound supplement ([2]; 10 mM glyceryl glyphosate plus L-tyrosine, L-tryptophan, L-phenylalanine, 2,3-dihydroxybenzoic acid, para-aminobenzoic acid, vector control strain): formed colonies; Toxicity (colony formation) ([2]; 10 mM glyceryl glyphosate, MOPS minimal plate, JM101/vector control): non-toxic; Cytotoxicity [3]: relatively non-cytotoxic; Hydrolysis of Glyceryl Glyphosate into Glyphosate in Crude Extracts [4]: Yes

Reference: patent publication US5254801A, “Heterologous dominant conditional lethal gene which is a phosphonate monoester hydrolase and use thereof in plants” (Monsanto Company, priority 1990, dated 1993)
